From patent US7795261B2, “Substituted 1-piperidin-4-yl-4-pyrrolidin-3-yl-piperazine derivatives and their use as neurokinin antagonists” (Janssen Pharmaceutica NV, priority 2002, dated 2010)

Assays:
NK1 = NK1 (Homo sapiens, UniProt P25103); assay: Signal transduction (ST), intracellular Ca++ (FLIPR), NK1 antagonistic activity; format: cell-based; settings: read-out: pIC50 NK1 (converted)
Procedure: (§1) This test evaluates in vitro functional NK1 antagonistic activity. For the measurements of intracellular Ca^++ concentrations the cells were grown on 96-well (black wall/transparent bottom) plates from Costar for 2 days until they reached confluence. The cells were loaded with 2 μM Fluo3 in DMEM containing 0.1% BSA and 2.5 mM probenecid for 1 h at 37° C. They were washed 3× with a Krebs buffer (140 mM NaCl, 1 mM MgCl2×6H2O, 5 mM KCl, 10 mM glucose, 5 mM HEPES; 1.25 mM CaCl2; pH 7.4) containing 2.5 mM probenecid and 0.1% BSA (Ca^++-buffer). The cells were preincubated with a concentration range of antagonists for 20 min at RT and Ca^++-signals after addition of the agonists were measured in a Fluorescence Image Plate Reader (FLIPR from Molecular Devices, Crawley, England). The peak of the Ca^++-transient was considered as the relevant signal and the mean values of corresponding wells were analysed as described below.
The sigmoidal dose response curves were analysed by computerised curve-fitting, using the GraphPad Program. […] For antagonist responses the IC50-value was calculated using non-linear regression. […]

NK3 = target: T1, NK3 (Homo sapiens, UniProt P29371); assay: Signal transduction (ST), intracellular Ca++ (FLIPR), NK3; format: cell-based; settings: read-out: pIC50 NK3 (converted)
T1 sequence (P29371 1-465): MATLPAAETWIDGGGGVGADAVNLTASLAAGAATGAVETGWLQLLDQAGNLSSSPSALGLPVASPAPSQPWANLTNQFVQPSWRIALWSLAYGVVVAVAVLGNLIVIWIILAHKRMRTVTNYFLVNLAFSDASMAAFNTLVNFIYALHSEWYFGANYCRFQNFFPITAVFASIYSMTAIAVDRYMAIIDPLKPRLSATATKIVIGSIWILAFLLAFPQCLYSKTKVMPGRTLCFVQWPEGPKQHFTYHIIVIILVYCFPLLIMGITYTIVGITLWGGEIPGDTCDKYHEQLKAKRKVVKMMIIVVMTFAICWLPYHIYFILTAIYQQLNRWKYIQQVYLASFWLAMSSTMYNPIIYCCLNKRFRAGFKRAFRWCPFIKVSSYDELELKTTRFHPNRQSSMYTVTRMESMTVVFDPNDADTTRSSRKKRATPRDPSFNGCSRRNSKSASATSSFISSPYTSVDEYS
Procedure: [The procedure below names another target; the source lists this target under the same test.] as §1
The sigmoidal dose response curves were analysed by computerised curve-fitting, using the GraphPad Program. […] For antagonist responses the IC50-value was calculated using non-linear regression.
The last columns indicates—without being limited therefore—for which the compounds might be most suitable. Of course, since for some neurokinin receptors no data was determined, it is obvious that these compounds might be attributed to another suitable use.

Chain of NK1 (P25103 whole entry): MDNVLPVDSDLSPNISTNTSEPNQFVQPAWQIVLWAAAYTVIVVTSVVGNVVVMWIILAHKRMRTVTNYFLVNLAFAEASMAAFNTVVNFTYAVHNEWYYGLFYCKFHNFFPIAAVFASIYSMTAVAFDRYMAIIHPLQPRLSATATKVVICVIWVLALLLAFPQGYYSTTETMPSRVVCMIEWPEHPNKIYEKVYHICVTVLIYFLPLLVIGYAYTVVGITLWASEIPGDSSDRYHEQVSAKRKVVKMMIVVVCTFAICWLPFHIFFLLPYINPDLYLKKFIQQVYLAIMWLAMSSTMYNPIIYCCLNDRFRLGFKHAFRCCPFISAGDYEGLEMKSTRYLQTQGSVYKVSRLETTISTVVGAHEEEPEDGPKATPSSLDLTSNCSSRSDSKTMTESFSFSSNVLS

SMILES	IC50 (NK1) [nM]	IC50 (NK3) [nM]
O=C(C(=O)N1CCC(N2CCN(C3CCN(C(=O)c4cc(C(F)(F)F)cc(C(F)(F)F)c4)C(Cc4ccccc4)C3)CC2)C1)c1ccco1 (single isomer, unassigned) [Compound 191]	15.8	2510
N#Cc1cccc(C(=O)N2CCC(N3CCN(C4CCN(C(=O)c5cc(C(F)(F)F)cc(C(F)(F)F)c5)C(Cc5ccccc5)C4)CC3)C2)c1 (single isomer, unassigned) [Compound 192]	10	631
N#Cc1cccc(C(=O)N2CCC(N3CCN(C4CCN(C(=O)c5cc(C(F)(F)F)cc(C(F)(F)F)c5)C(Cc5ccccc5)C4)CC3)C2)c1 (single isomer, unassigned) [Compound 193]	7.94	501
O=C(c1cc(C(F)(F)F)cc(C(F)(F)F)c1)N1CCC(N2CCN(C3CCN(Cc4ccccc4)C3)CC2)CC1Cc1ccc(F)c(F)c1 (single isomer, unassigned) [Compound 222]	50.1	6310
O=C(c1cc(C(F)(F)F)cc(C(F)(F)F)c1)N1CCC(N2CCN(C3CCN(Cc4ccccc4)C3)CC2)CC1Cc1ccc(F)c(F)c1 (single isomer, unassigned) [Compound 223]	158	1580
O=C(C1CCOC1)N1CCC(N2CCN(C3CCN(C(=O)c4cc(C(F)(F)F)cc(C(F)(F)F)c4)C(Cc4ccc(F)c(F)c4)C3)CC2)C1 (single isomer, unassigned) [Compound 227]	3.16	1580
O=C(C1CC1)N1CCC(N2CCN(C3CCN(C(=O)c4cc(C(F)(F)F)cc(C(F)(F)F)c4)C(Cc4ccc(F)c(F)c4)C3)CC2)C1 (single isomer, unassigned) [Compound 231]	6.31	3160
CC(C(=O)N1CCC(N2CCN([C@H]3CCN(C(=O)c4cc(C(F)(F)F)cc(C(F)(F)F)c4)[C@H](Cc4ccc(F)c(F)c4)C3)CC2)C1)c1ccccc1 (single isomer, unassigned) [Compound 233]	25.1	794
O=C(c1cc(C(F)(F)F)cc(C(F)(F)F)c1)N1CCC(N2CCN(C3CCN(S(=O)(=O)c4cccs4)C3)CC2)CC1Cc1ccc(F)c(F)c1 (single isomer, unassigned) [Compound 234]	10	3160
Cc1nnsc1C(=O)N1CCC(N2CCN(C3CCN(C(=O)c4cc(C(F)(F)F)cc(C(F)(F)F)c4)C(Cc4ccc(F)c(F)c4)C3)CC2)C1 (single isomer, unassigned) [Compound 236]	3.98	5010
O=C(c1cnccn1)N1CCC(N2CCN(C3CCN(C(=O)c4cc(C(F)(F)F)cc(C(F)(F)F)c4)C(Cc4ccc(F)c(F)c4)C3)CC2)C1 (single isomer, unassigned) [Compound 237]	10	3980
O=C(C1CCOC1)N1CCC(N2CCN(C3CCN(C(=O)c4cc(C(F)(F)F)cc(C(F)(F)F)c4)C(Cc4ccc(F)c(F)c4)C3)CC2)C1 (single isomer, unassigned) [Compound 242]	10	2510
Cc1nnsc1C(=O)N1CCC(N2CCN(C3CCN(C(=O)c4cc(C(F)(F)F)cc(C(F)(F)F)c4)C(Cc4ccccc4)C3)CC2)C1 (single isomer, unassigned) [Compound 381]	5.01	2510
O=C(C1CCCCC1)N1CCC(N2CCN(C3CCN(C(=O)c4cc(C(F)(F)F)cc(C(F)(F)F)c4)C(Cc4ccccc4)C3)CC2)C1 (single isomer, unassigned) [Compound 402]	15.8	501
O=C(c1ccccc1)N1CCC(N2CCN(C3CCN(C(=O)c4cc(C(F)(F)F)cc(C(F)(F)F)c4)C(Cc4ccccc4)C3)CC2)C1 (stereo not drawn) [Compound 3]	126	1580
O=C(c1cc(C(F)(F)F)cc(C(F)(F)F)c1)N1CC[C@H](N2CCN(C3CCN(c4nc5ccccc5s4)C3)CC2)C[C@H]1Cc1ccccc1 (stereo partly drawn) [Compound 7]	200	316
Cn1c(N2CCC(N3CCN([C@H]4CCN(C(=O)c5cc(C(F)(F)F)cc(C(F)(F)F)c5)[C@H](Cc5ccccc5)C4)CC3)C2)nc2ccccc21 (stereo partly drawn) [Compound 8]	100	3980
Cc1ccccc1-n1cncc1CN1CCC(N2CCN([C@H]3CCN(C(=O)c4cc(C(F)(F)F)cc(C(F)(F)F)c4)[C@H](Cc4ccccc4)C3)CC2)C1 (stereo partly drawn) [Compound 9]	39.8	1260

SMILES	IC50 (NK1) [nM]	IC50 (NK3) [nM]
O=C(c1cc(C(F)(F)F)cc(C(F)(F)F)c1)N1CC[C@H](N2CCN(C3CCN(Cc4nc5ccccc5[nH]4)C3)CC2)C[C@H]1Cc1ccccc1 (stereo partly drawn) [Compound 10]	100	6310
CCOCCn1c(CN2CCC(N3CCN([C@H]4CCN(C(=O)c5cc(C(F)(F)F)cc(C(F)(F)F)c5)[C@H](Cc5ccccc5)C4)CC3)C2)nc2ccccc21 (stereo partly drawn) [Compound 11]	126	3160
N#Cc1cccc(C(=O)N2CCC(N3CCN([C@H]4CCN(C(=O)c5cc(C(F)(F)F)cc(C(F)(F)F)c5)[C@H](Cc5ccccc5)C4)CC3)C2)c1 (stereo partly drawn) [Compound 12]	79.4	126
CC(C)Oc1cccc(C(=O)N2CCC(N3CCN([C@H]4CCN(C(=O)c5cc(C(F)(F)F)cc(C(F)(F)F)c5)[C@H](Cc5ccccc5)C4)CC3)C2)c1 (stereo partly drawn) [Compound 15]	31.6	2000
COc1cccc(OC)c1C(=O)N1CCC(N2CCN([C@H]3CCN(C(=O)c4cc(C(F)(F)F)cc(C(F)(F)F)c4)[C@H](Cc4ccccc4)C3)CC2)C1 (stereo partly drawn) [Compound 18]	25.1	2510
O=C(c1ccc(F)c(F)c1)N1CCC(N2CCN([C@H]3CCN(C(=O)c4cc(C(F)(F)F)cc(C(F)(F)F)c4)[C@H](Cc4ccccc4)C3)CC2)C1 (stereo partly drawn) [Compound 20]	126	5010
O=C(c1ccc(Cl)cc1Cl)N1CCC(N2CCN([C@H]3CCN(C(=O)c4cc(C(F)(F)F)cc(C(F)(F)F)c4)[C@H](Cc4ccccc4)C3)CC2)C1 (stereo partly drawn) [Compound 22]	50.1	2510
Cc1occc1C(=O)N1CCC(N2CCN([C@H]3CCN(C(=O)c4cc(C(F)(F)F)cc(C(F)(F)F)c4)[C@H](Cc4ccccc4)C3)CC2)C1 (stereo partly drawn) [Compound 36]	25.1	200
Cc1cc(C(=O)N2CCC(N3CCN([C@H]4CCN(C(=O)c5cc(C(F)(F)F)cc(C(F)(F)F)c5)[C@H](Cc5ccccc5)C4)CC3)C2)c(C)o1 (stereo partly drawn) [Compound 37]	39.8	2000
Cc1oc(-c2ccccc2)cc1C(=O)N1CCC(N2CCN([C@H]3CCN(C(=O)c4cc(C(F)(F)F)cc(C(F)(F)F)c4)[C@H](Cc4ccccc4)C3)CC2)C1 (stereo partly drawn) [Compound 38]	200	7940
O=C(c1cccs1)N1CCC(N2CCN([C@H]3CCN(C(=O)c4cc(C(F)(F)F)cc(C(F)(F)F)c4)[C@H](Cc4ccccc4)C3)CC2)C1 (stereo partly drawn) [Compound 42]	25.1	251
Cc1cc(C(=O)N2CCC(N3CCN([C@H]4CCN(C(=O)c5cc(C(F)(F)F)cc(C(F)(F)F)c5)[C@H](Cc5ccccc5)C4)CC3)C2)no1 (stereo partly drawn) [Compound 47]	39.8	3980
Cc1noc(C)c1C(=O)N1CCC(N2CCN([C@H]3CCN(C(=O)c4cc(C(F)(F)F)cc(C(F)(F)F)c4)[C@H](Cc4ccccc4)C3)CC2)C1 (stereo partly drawn) [Compound 48]	15.8	2510
Cc1nc(C)c(C(=O)N2CCC(N3CCN([C@H]4CCN(C(=O)c5cc(C(F)(F)F)cc(C(F)(F)F)c5)[C@H](Cc5ccccc5)C4)CC3)C2)s1 (stereo partly drawn) [Compound 50]	6.31	3160
Cc1nnsc1C(=O)N1CCC(N2CCN([C@H]3CCN(C(=O)c4cc(C(F)(F)F)cc(C(F)(F)F)c4)[C@H](Cc4ccccc4)C3)CC2)C1 (stereo partly drawn) [Compound 51]	63.1	3980
O=C(c1csnn1)N1CCC(N2CCN([C@H]3CCN(C(=O)c4cc(C(F)(F)F)cc(C(F)(F)F)c4)[C@H](Cc4ccccc4)C3)CC2)C1 (stereo partly drawn) [Compound 52]	31.6	631
O=C(c1snnc1-c1ccccc1)N1CCC(N2CCN([C@H]3CCN(C(=O)c4cc(C(F)(F)F)cc(C(F)(F)F)c4)[C@H](Cc4ccccc4)C3)CC2)C1 (stereo partly drawn) [Compound 53]	39.8	3160
O=C(c1cccc2ccccc12)N1CCC(N2CCN([C@H]3CCN(C(=O)c4cc(C(F)(F)F)cc(C(F)(F)F)c4)[C@H](Cc4ccccc4)C3)CC2)C1 (stereo partly drawn) [Compound 54]	39.8	794
